Test results taken from PMC11477289, “Low-Basicity 5-HT6 Receptor Ligands from the Group of Cyclic Arylguanidine Derivatives and Their Antiproliferative Activity Evaluation” (International Journal of Molecular Sciences, 2024).
Read-outs that look alike come from different tables or passages of the source.

Key:
human 5-HT6 [1] = target: T1, human 5-HT6 (Homo sapiens, UniProt P50406); experiment: [3H]-LSD radioligand binding assay, 5-HT6R; settings: HEK293 expressing human 5-HT6R, read-out: 5-HT6 Ki
T1 construct: expressed in transfected cells
Method: Next, the ligands’ affinity for the 5-HT6 receptors was evaluated in the [^3H]-LSD radioligand binding assay. Experiments were performed in a stable HEK293 cell line expressing the human 5-HT6R.
The pellets were stored at −80 °C.

[2] = system: MCF7 breast carcinoma cell line; experiment: Antiproliferative activity (MTS), MCF7; settings: read-out: IC50 Values MCF7
U87MG glioblastoma cells = experiment: Antiproliferative activity (MTS), U87MG; settings: 72 h, read-out: IC50 Values U87MG
U-251 glioblastoma cells = experiment: Antiproliferative activity (MTS), U-251; settings: read-out: IC50 Values U-251
[3] = system: 1321N1 astrocytoma cell line; experiment: Antiproliferative activity (MTS), 1321N1; settings: read-out: IC50 Values 1321N1
[4] = system: LN-229 glioblastoma cell line; experiment: Antiproliferative activity (MTS), LN-229; settings: read-out: IC50 Values LN-229
[5] = system: AsPC-1 pancreas adenocarcinoma cell line; experiment: Antiproliferative activity (MTS), AsPC-1; settings: read-out: IC50 Values AsPC-1
[6] = system: normal human astrocytes (NHAs); experiment: Activity on normal astrocytes (MTS), NHA; settings: for IC50: Homo sapiens, Astrocyte, 72 h, read-out: IC50 Values NHA
[7] = Chromatographic hydrophobicity index on C18 column (lipophilicity); format: physicochemical
Text: We began with an assay for lipophilicity, affinity for phospholipids (for 40 compounds), and drug binding to human serum albumin (HSA) (for 20 compounds), using chromatographic protocols developed by Valko [46] and implemented in our laboratory [47]. […] These methods allowed the determination of chromatographic hydrophobicity indices (CHIs), binding to HSA (%HSA), and phospholipids (CHIIAM) using a single-gradient elution experiment and comparison to reference substances.

[8] = Affinity to phospholipids, IAM column (CHI IAM); format: physicochemical; settings: IAM.PC.DD2 column, pH 7.4
[9] = target: human serum albumin (HSA) (Homo sapiens, UniProt P02768); experiment: Binding to HSA, Chiralpak HSA column
Text: We began with an assay for lipophilicity, affinity for phospholipids (for 40 compounds), and drug binding to human serum albumin (HSA) (for 20 compounds), using chromatographic protocols developed by Valko [46] and implemented in our laboratory. Compounds with the highest affinity for 5-HT6R and those showing the most promising ADMET parameters, including the possibility of BBB penetration, DDI, and lipophilicity, determined in silico in SwissADME [45], were selected for testing. These methods allowed the determination of chromatographic hydrophobicity indices (CHIs), binding to HSA (%HSA), and phospholipids (CHIIAM) using a single-gradient elution experiment and comparison to reference substances.
The use of columns modified with plasma proteins, such as HSA, also allows for the estimation of binding to HSA, which is the most dominant plasma protein (PP). Binding to PP affects drug pharmacokinetics, such as distribution, half-life, and clearance.
The mobile phase flow rate was 1.5 mL/min, and the column was maintained at 30 °C. • Chiralpak® HSA (50 mm × 4 mm; 5 µm with safety guard column; Daicel Chiral Technologies, West Chester, PA, USA), mobile phase A: 50 mM ammonium acetate, mobile phase B: HPLC-grade isopropanol (VWR International, Leuven, Belgium). For the first 15 min, the linear gradient from 0 to 20% isopropanol was applied and then held at 20% isopropanol for 12 min. In the last 5 min of the sequence, the mobile phase mixture received a pure ammonium acetate solution. The column temperature was held at 30 °C, whereas the flow rate was 0.9 mL/min.
The reference substances for the calibration of HSA, C18, and IAM columns were purchased, respectively: acetanilide, butyrophenone, diclofenac, and octanonophenone (Alfa Aesar, Haverhill, MA, USA); acetophenone, benzimidazole, colchicine, indole, indometacin, paracetamol, and theophylline (Sigma-Aldrich, Steinheim, Germany); nicardipine and nizatidine (Cayman Chemical, Ann Arbor, MI, USA); carbamazepine, heptanophenone, hexanophenone, propiophenone, and valerophenone (Acros Organic, Pittsburg, PA, USA). Before chromatographic experiments, solutes were dissolved in dimethyl sulfoxide (Avantor Performance Materials Poland S.A., Gliwice, Poland) to obtain a 200 µg/mL concentration. The detection was performed in the UV region at the wavelength from 190 nm to 300 nm. The injected volume was 5 μL, and each compound was analyzed in triplicate.

5-HT7b receptor = 5-HT7b receptor (Homo sapiens, UniProt P34969); experiment: [3H]-5-CT radioligand binding assay, 5-HT7
D2L receptor = D2L receptor (Homo sapiens, UniProt P14416); experiment: [3H]-raclopride radioligand binding assay, D2
5-HT1A receptor = target: T2, 5-HT1A receptor (Homo sapiens, UniProt P08908); experiment: [3H]-8-OHDPAT radioligand binding assay, 5-HT1A
T2 sequence (P08908 1-422): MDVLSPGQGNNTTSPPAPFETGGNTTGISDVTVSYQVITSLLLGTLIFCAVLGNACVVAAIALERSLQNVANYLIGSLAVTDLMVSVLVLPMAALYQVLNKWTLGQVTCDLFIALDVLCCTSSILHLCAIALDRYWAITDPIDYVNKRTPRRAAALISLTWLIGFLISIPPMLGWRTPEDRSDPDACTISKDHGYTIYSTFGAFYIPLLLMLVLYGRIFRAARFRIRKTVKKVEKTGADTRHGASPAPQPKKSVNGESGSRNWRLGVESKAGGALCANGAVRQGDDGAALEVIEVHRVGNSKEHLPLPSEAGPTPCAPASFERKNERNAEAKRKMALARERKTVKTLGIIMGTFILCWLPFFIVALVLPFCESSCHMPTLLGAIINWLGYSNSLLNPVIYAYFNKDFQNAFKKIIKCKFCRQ

5-HT5A receptor = 5-HT5A receptor (Homo sapiens, UniProt P47898); experiment: [3H]-LSD radioligand binding assay, 5-HT5A; settings: read-out: 5-HT5A Ki; [3H]-LSD, HEK293
PAMPA permeability test = format: in vitro ADME; settings: PBS pH 7.4, 5 h, room temperature
Method: This test allows the determination of the compound’s passive diffusion through biological membranes.
Precoated PAMPA Plate System Gentest was obtained from Corning (Tewksbury, MA, USA). Test compounds and caffeine solutions (200 µM) were prepared in a PBS buffer (pH = 7.4) and then added to the PAMPA plate. The plate was incubated at room temperature for 5 h without agitation. Then, 150 µL was aspirated from both acceptor (A) and donor (D) wells and then diluted with a 150 µL internal standard (IS) solution. The concentrations of the tested compounds in wells A and D were estimated using an LC/MS Waters ACQUITY™ TQD system with a TQ detector (Waters, Milford, CT, USA). The values of Pe were estimated according to the exact formulas provided by Corning and previously described in the literature.
4. Absorption – PAMPA permeability test
*Permeability coefficient. Compound is permeable if Pe≥1.5×10-6 cm/s
**CFN = caffeine, well-permeable control
UPLC of Caffeine solution in PBS (pH=7.4) after 5h of incubation: acceptor well
(above), donor well (below). IS – internal standard.
UPLC of PR 68 solution in PBS (pH=7.4) after 5h of incubation: acceptor well (above),
donor well (below). IS – internal standard. […]

human 5-HT6 [10] = target: T1, human 5-HT6; experiment: Functional evaluation, cAMP (LANCE Ultra) in HEK293 cells; format: cell-based; settings: for Kb: antagonist mode, cAMP induced by 5-CT 1000 nM
Method: The supernatant was aspirated, and the cell pellet was resuspended in a stimulation buffer (1 × HBSS, 5 mM HEPES, 0.5 mM IBMX, 0.1% BSA).
The functional properties of compounds were evaluated using the LANCE Ultra cAMP detection kit (PerkinElmer). […] To investigate the antagonist activity, dopamine for D2R was added at a concentration of 10 nM, and for cell lines with 5-HT7R, 5-HT1AR, or 5-HT6R, 5-CT concentrations were adjusted, being, respectively, 10, 100, and 1000 nM, according to the receptor subtype.
For the quantification of cAMP levels, cells (5 µL) were incubated with a 5 µL mixture of necessary compounds for 30 min at room temperature in a 384-well white opaque microtiter plate (PerkinElmer). After incubation, the reaction was stopped, and cells were lysed by the addition of a 10 µL working solution (5 µL Eu-cAMP and 5 µL ULight-anti-cAMP). The assay plate was incubated for 1 h at room temperature. The time-resolved fluorescence resonance energy transfer (TR-FRET) signal was detected by an Infinite M1000 Pro (Tecan, Männedorf, Switzerland) using instrument settings from the LANCE Ultra cAMP detection kit manual.

HEK293 = experiment: Cytotoxic activity on HEK293; format: cell-based; settings: Homo sapiens
Text: Table 6 Extended receptor affinity study, with functional tests and cytotoxic activity of selected compounds on HEK293. | column: HEK293 / IC50 [µM]

[11] = Metabolic stability in mouse liver microsomes (MLMs); format: in vitro ADME; settings: mouse, mouse liver microsomes, 120 min
Method: The metabolic stability of PR 68, PR 73, and PR 76 were determined in mouse liver microsomes (MLMs).
The metabolic stability of PR 68 was estimated with mouse liver microsomes (MLMs) (Sigma-Aldrich, St. Louis, MO, USA). […] Cold methanol was then added to the reaction mixture to quench the reaction. The precipitated MLMs were centrifuged, and the supernatant was analyzed by LC/MS with a Waters ACQUITY™ TQD system with a TQ detector (Waters, Milford, USA).
(1 picture or pasted object on this page, not shown here)

human serum albumin (HSA), sequence (P02768 25-609): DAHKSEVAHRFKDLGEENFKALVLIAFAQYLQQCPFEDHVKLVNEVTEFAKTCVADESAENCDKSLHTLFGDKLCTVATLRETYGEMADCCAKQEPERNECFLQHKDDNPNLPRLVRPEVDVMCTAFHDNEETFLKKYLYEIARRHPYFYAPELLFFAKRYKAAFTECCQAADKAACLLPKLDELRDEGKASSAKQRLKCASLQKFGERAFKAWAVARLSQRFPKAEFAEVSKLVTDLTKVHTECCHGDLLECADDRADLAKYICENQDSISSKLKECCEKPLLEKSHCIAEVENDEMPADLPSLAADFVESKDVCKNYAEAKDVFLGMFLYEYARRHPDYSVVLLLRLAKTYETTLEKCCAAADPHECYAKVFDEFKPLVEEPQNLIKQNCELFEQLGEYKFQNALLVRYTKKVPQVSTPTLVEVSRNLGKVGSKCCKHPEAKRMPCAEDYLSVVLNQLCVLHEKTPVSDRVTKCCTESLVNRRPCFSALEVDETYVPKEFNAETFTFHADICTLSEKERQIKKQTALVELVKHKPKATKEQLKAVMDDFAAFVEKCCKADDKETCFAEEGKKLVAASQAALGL
5-HT7b receptor, sequence (P34969 1-432 limits assumed): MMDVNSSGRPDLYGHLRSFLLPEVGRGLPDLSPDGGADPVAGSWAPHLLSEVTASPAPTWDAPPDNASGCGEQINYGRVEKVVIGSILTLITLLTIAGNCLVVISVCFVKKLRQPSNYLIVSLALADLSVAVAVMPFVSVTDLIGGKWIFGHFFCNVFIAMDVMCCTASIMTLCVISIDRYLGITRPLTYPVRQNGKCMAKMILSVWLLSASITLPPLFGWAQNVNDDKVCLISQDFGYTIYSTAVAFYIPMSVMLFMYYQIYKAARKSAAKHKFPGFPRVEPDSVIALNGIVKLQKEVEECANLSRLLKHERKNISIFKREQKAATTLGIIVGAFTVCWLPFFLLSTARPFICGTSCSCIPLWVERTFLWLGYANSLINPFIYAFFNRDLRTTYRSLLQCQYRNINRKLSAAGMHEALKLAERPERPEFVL
D2L receptor, sequence (P14416 whole entry): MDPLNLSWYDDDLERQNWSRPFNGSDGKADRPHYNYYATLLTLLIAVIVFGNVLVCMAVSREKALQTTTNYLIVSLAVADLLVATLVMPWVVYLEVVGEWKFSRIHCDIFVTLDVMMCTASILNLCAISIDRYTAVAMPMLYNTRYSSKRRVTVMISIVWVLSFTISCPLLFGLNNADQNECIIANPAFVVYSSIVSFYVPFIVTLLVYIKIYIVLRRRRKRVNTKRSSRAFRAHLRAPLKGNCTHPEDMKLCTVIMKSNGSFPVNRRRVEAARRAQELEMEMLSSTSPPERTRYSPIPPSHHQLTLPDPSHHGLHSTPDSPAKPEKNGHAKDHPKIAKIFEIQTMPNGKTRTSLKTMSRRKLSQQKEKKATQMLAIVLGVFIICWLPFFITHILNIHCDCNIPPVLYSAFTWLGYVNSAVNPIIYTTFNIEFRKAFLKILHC
T1 sequence (P50406 whole entry): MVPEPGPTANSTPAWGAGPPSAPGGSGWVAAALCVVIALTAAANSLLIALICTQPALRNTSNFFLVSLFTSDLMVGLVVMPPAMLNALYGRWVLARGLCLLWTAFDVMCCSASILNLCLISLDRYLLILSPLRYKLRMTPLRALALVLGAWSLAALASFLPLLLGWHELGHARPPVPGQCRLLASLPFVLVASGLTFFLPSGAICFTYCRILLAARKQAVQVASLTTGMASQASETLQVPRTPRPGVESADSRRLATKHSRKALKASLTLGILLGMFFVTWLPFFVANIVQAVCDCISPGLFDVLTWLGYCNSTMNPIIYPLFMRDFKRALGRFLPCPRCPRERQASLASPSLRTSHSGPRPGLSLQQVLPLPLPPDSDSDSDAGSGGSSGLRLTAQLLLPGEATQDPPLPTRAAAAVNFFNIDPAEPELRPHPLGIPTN
5-HT5A receptor, sequence (P47898 whole entry): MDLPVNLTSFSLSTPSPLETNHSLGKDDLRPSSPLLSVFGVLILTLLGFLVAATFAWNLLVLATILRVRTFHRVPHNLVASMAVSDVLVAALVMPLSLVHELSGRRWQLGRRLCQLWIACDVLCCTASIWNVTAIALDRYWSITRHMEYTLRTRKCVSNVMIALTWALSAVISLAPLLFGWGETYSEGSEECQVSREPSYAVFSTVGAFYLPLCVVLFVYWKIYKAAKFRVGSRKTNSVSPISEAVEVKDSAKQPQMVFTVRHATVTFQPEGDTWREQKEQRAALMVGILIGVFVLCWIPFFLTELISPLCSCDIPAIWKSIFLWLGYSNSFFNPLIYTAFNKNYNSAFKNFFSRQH

Molecule | Ki (human 5-HT6 [1]) [µM] | melting point [°C] | IC50 ([2]; Homo sapiens, MCF7, 72 h) [µM] | IC50 (U87MG glioblastoma cells; Homo sapiens, U-87 MG) [µM] | IC50 (U-251 glioblastoma cells; Homo sapiens, U-251, 72 h) [µM] | IC50 ([3]; Homo sapiens, 1321-N1, 72 h) [µM] | IC50 ([4]; Homo sapiens, LN-229, 72 h) [µM] | IC50 ([5]; Homo sapiens, ASPC1, 72 h) [µM] | CHI C18 pH 2.6 [7] | CHI C18 pH 7.4 [7] | CHI C18 pH 10.5 [7] | CHI IAM [8] | Ki (5-HT7b receptor) [µM] | Ki (D2L receptor) [µM] | Ki (5-HT1A receptor) [µM] | also measured
CN(C)c1ccc2c(c1)CNC(NS(=O)(=O)c1cccc3ccccc13)=N2 [PR 64, N -[6-(dimethylamino)-3,4-dihydroquinazolin-2-yl]naphthalene-1-sulfonamide] | 0.851 ± 0.192 | 216 to 222 | 9.7 ± 1.7 | > 25 | 7.7 ± 0.8 | > 25 | > 25 | > 25 | – | – | – | – | – | – | – | IC50 [6]: 15.1 ± 2.1 µM; selectivity index ([6]; activity on NHA compared to U-251 cells): 1.96
CC1OC(NS(=O)(=O)c2cccc3ccccc23)=Nc2ccccc21 (stereo not shown) [PR 77, N -(4-methyl-4H-3,1-benzoxazin-2-yl)naphthalene-1-sulfonamide] | 0.373 ± 0.092 | 229 to 233 | > 25 | > 25 | > 25 | > 25 | > 25 | > 25 | 102.5 | 99.9 | 103.2 | 40.8 | 56.7 | 222 | 7.54 | %HSA ([9]; Chiralpak HSA column): 95.9%; logKHSA ([9]; Chiralpak HSA column): 1.3
N -[6-(4-methylpiperazin-1-yl)-3,4-dihydroquinazolin-2-yl]naphthalene-1-sulfonamide [PR 66] | 11.6 ± 2.66 | – | – | – | – | – | – | – | 81.4 | 79.6 | 80.7 | 36.0 | – | – | – | %HSA [9]: 92.7%; logKHSA [9]: 1.0; IC50 ([2]; 72 h, MTS): > 25 µM; IC50 (U87MG glioblastoma cells; MTS): > 25 µM; IC50 (U-251 glioblastoma cells; 72 h, MTS): > 25 µM; IC50 ([3]; 72 h, MTS): > 25 µM; IC50 ([4]; 72 h, MTS): > 25 µM; IC50 ([5]; 72 h, MTS): > 25 µM; Ki (5-HT5A receptor): 3.44 µM
Cn1c(=O)c2c(ncn2C)n(C)c1=O [caffeine, reference compound] | – | – | – | – | – | – | – | – | – | – | – | – | – | – | – | Papp at 5 h, 200 µM (PAMPA permeability test; PAMPA, read-out: PAMPA Pe): 8.23 ×10⁻⁶ cm/s; PAMPA Pe (PAMPA permeability test): 8.23 10^−6 cm/s
O=S(=O)(NC1=Nc2c(Cl)cccc2CN1)c1cccc2ccccc12 [PR 49, N -(8-chloro-3,4-dihydroquinazolin-2-yl)naphthalene-1-sulfonamide] | 0.077 ± 0.018 | 250 to 256 | > 25 | > 25 | > 25 | > 25 | > 25 | > 25 | – | – | – | – | 142 | – | 207 | Kb (human 5-HT6 [10]): 0.081 µM; IC50 (HEK293): 38.8 µM
CC1NC(NS(=O)(=O)c2cccc3ccccc23)=Nc2c(Cl)cccc21 (stereo not shown) [PR 71, N -(8-chloro-4-methyl-3,4-dihydroquinazolin-2-yl)naphthalene-1-sulfonamide] | 0.061 ± 0.014 | 215 to 219 | > 25 | > 25 | > 25 | > 25 | > 25 | > 25 | 102.2 | 100.7 | 103.8 | 44.8 | 37.5 | 142 | 134 | Kb (human 5-HT6 [10]): 0.035 µM; %HSA ([9]; Chiralpak HSA column): 97.5%; logKHSA ([9]; Chiralpak HSA column): 1.4
CN(C)C/C=C/C(=O)Nc1cc2c(Nc3ccc(F)c(Cl)c3)ncnc2cc1O[C@H]1CCOC1 [Afatinib, reference compound] | – | – | 25.9 | – | 27 | – | 9.8 | – | – | – | – | – | – | – | – | IC50 [6]: 7.5 µM
CC1c2ccccc2N=C(NS(=O)(=O)c2cccc3ccccc23)N1C (stereo not shown) [PR 76, N -(3,4-dimethyl-3,4-dihydroquinazolin-2-yl)naphthalene-1-sulfonamide] | 0.103 ± 0.025 | 215 to 217 | > 25 | > 25 | > 25 | > 25 | > 25 | > 25 | – | – | – | – | 35.6 | 174 | 11 | EC50 (human 5-HT6 [10]; agonist mode, cAMP): 0.199 µM; function at 5-HT6R (human 5-HT6 [10]; cAMP): agonist; remaining at 2 h, 50 µM [11]: 87.4%
